The source of these data is publication PMC5653977 (EMBO Molecular Medicine, 2017).

The target of one assay is T1, ERBB4-PIK3R1 (Homo sapiens, UniProt Q15303).
T1 construct: human full‐length ERBB4‐Cyt1 was fused to the NTEV fragment; expressed in transfected cells; host or cells: PC12 Tet-Off cells (rat)
Description: ERBB4-PIK3R1 split TEV single-culture dose-response assay, EGFld as stimulus. It counts as cell-based. The settings on record: for inhibitory effect in the ERBB4-PIK3R1 single-culture assay: PC12 cells, 10 ng/ml EGFld as stimulus. From the text:
For our HTS‐compatible split TEV assay approach, human full‐length ERBB4‐Cyt1 was fused to the NTEV fragment, a TEV protease cleavage site (tevS) and the artificial co‐transcriptional activator Gal4‐VP16 (ERBB4‐NTEV‐tevS‐GV); human PIK3R1 was fused to the CTEV fragment (PIK3R1‐CTEV) (Fig 1A). Upon ERBB4 activation, PIK3R1 is recruited to the receptor resulting in a reconstituted protease activity that cleaves off GV. In turn, released GV translocates to the nucleus and binds to upstream activating sequences (UAS) to activate the transcription of a firefly luciferase reporter gene (Fig 1A). A constitutively expressed Renilla luciferase driven under the control of the human thymidine kinase (TK) promoter was used as control to address off‐target effects related to toxicity.
For one 96‐well plate, 4 × 10^6 PC12 cells were harvested and diluted in 5 ml assay medium (phenol red‐free DMEM (low glucose, Life Technologies), 10% FCS, 5% HS, no antibiotics). The split TEV assay plasmids (2 μg pcDNA3_ERBB4‐NTEV‐tevS‐GV‐2xHA, 2 μg pTag4C_PIK3R1‐CTEV‐2xHA, 2 μg p5xUAS_firefly luciferase, 2 μg pTK_Renilla luciferase, and 0.5 μg pECFP‐C1 for examining transfection efficiency) were diluted in 2.5 ml Opti‐MEM (Life Technologies) and vortexed. In parallel, 20 μl of the transfection reagent Lipofectamine 2000 was diluted in 2.5 ml Opti‐MEM and vortexed.

Assay [1] concerns pyramidal neurons of the prefrontal cortex. In words: Spontaneous inhibitory postsynaptic currents (sIPSCs) in acute prefrontal cortex slices. It is filed as cell-based, mouse. The settings on record: 10 μM, bath application. The method, then:
(§1) 300‐μm‐thick transverse slices comprising the medial prefrontal cortex (mPFC) area were prepared from 7‐ to 8‐week‐old C57Bl/6 mice as described previously (Teng et al, 2013; Agarwal et al, 2014). All recordings were performed in cortical layer V projection neurons. The bath solution consisted of oxygenated artificial cerebrospinal fluid (ACSF) containing NaCl 126 mM, KCl 3 mM, NaH2PO4 1.25 mM, MgSO4 1 mM, NaHCO3 26 mM, CaCl2 2 mM, glucose 10 mM, and the pH 7.2 adjusted with NaOH. Spontaneous GABAergic inhibitory postsynaptic currents (sIPSC) and evoked GABAergic inhibitory postsynaptic currents (eIPSC) were recorded at a holding potential of −70 mV in the presence of 6‐cyano‐7‐nitroquinoxaline‐2,3‐dione (CNQX, 10 μM) and DL‐2‐amino‐5‐phosphonovaleric acid (D‐APV, 50 μM). Glass pipettes were filled with the solution containing: KCl 140 mM, MgCl2 2 mM, CaCl2 1 mM, Na2GTP 0.5 mM, Na2ATP 4 mM, EGTA 10 mM, HEPES 10 mM. Patches with a series resistance of > 25 MΩ, a membrane resistance of < 0.8 GΩ, or leak currents of > 150 pA were excluded. Biphasic rectangular electric pulses (10 ms, 100–300 μA) were applied to layer I of the prelimbic area of mPFC through another glass pipette filled with ACSF. Synaptic currents were acquired at 20 kHz and filtered at 6 kHz, with a Digidata 1440 ADC‐converter coupled to a Multiclamp 700B amplifier (Molecular Devices, USA). Data acquisition was performed using pClamp10 software (Molecular Devices). MiniAnalysis 6.0.9 (Synaptosoft Inc., Decatur, USA) and pClamp10.1 were used for amplitude and frequency analysis of sIPSCs and eIPSCs, respectively. Paired Student's t‐test was used for statistical analysis.

The test system is the same in assay [2]. Description: Evoked inhibitory postsynaptic currents (eIPSCs) in acute prefrontal cortex slices. It counts as cell-based, mouse. The settings on record: 5 μM. On the procedure: as §1, with “Data acquisition was performed using pClamp10 software (Molecular Devices). MiniAnalysis 6.0.9 (Synaptosoft Inc., Decatur, USA) and pClamp10.1 were used for amplitude and frequency analysis of sIPSCs and eIPSCs, respectively. Paired Student's t‐test was used for statistical analysis.” left out

The target of the next assay is ERBB4 (Homo sapiens, UniProt Q15303). In words: Western blot of ERBB4 phosphorylation in T-47D cells. The settings on record: 10 ng/ml EGFld, 10 μM compound, 5 min.
ERBB4, sequence (Q15303 26-1308): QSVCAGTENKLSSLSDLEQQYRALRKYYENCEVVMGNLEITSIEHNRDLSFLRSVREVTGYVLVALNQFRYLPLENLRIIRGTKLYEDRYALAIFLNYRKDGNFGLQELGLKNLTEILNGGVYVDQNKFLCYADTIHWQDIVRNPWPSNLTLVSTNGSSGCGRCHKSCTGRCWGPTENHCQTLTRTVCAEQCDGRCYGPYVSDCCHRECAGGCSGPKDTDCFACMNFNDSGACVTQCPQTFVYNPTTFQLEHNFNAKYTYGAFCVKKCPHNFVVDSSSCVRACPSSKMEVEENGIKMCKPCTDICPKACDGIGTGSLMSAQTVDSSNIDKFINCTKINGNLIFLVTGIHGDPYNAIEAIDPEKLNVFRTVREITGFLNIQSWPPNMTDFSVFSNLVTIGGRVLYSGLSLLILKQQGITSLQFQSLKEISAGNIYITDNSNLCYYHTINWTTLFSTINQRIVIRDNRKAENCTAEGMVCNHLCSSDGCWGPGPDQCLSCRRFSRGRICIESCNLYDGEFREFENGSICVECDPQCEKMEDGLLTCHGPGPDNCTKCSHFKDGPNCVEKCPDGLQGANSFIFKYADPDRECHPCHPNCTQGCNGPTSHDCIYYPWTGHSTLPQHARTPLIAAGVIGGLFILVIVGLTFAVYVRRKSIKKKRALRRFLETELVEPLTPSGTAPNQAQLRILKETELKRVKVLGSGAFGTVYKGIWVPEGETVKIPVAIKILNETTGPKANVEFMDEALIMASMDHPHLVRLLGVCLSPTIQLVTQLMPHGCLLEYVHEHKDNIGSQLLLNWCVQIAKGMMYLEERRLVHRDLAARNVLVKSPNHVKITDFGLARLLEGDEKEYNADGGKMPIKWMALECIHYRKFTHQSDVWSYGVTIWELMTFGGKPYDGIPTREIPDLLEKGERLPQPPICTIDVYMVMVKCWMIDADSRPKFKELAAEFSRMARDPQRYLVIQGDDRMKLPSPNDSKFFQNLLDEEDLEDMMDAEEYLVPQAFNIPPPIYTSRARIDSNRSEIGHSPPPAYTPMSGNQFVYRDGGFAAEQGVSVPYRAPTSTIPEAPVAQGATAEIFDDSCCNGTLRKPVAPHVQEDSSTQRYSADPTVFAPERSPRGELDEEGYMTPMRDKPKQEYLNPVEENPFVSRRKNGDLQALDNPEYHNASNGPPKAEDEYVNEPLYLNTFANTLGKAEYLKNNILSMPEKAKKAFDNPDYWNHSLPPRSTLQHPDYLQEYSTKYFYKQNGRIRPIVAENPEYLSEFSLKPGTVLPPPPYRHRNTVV
The next assay has as its system NRG1-ERBB4 signaling. In words: Nrg1-ERBB4-PIK3R1 split TEV co-culture compound screen of the NIH Clinical Collection. It counts as cell-based, human.
The mark [3] stands for this setting: compound screen of the NIH Clinical Collection, sheet raw data NCC-003, compounds ranked by Z-score.
[4] abbreviates: compounds at 10 μM, 24 h, PC12 split TEV assay cells co-cultured with Nrg1-expressing PC12 cells, analysed with cellHTS2.
Where [5] appears, read: NIH Clinical Collection NCC-003 raw data, compounds ranked by Z-score, 'flagged' given instead of a Z-score.

Counter-ions that a name gives are not always drawn. Like-named read-outs stand apart in the source and are kept apart here.

T1 sequence (Q15303 26-1308): as above

Consider `CS[C@@H]1CC2=CC(=O)CC[C@]2(C)C2CC[C@@]3(C)C(CCC34CCC(=O)O4)C21` (stereo partly drawn), for which the “inhibitory effect in the ERBB4-PIK3R1 single-culture assay” value (“inhibitory effect” for short) against ERBB4-PIK3R1 is “None of these compounds showed an inhibitory effect”.
Regarding “EGFld: soluble biologically active EGF-like domain of NRG1, used as Nrg1 stimulus (Reprokine, RKQ02297)”, the “EC50, ERBB4-PIK3R1 dose-response assay using EGFld as stimulus” value in the assay with ERBB4-PIK3R1 (PC12 split TEV assay cells, single culture) was 1 ng/mL.
As to `C[C@]12CCC(=O)C=C1C=C[C@@H]1[C@@H]2CC[C@@]2(C)[C@H]1CC[C@@]21CCC(=O)O1` [canrenone], the “inhibitory effect” value at ERBB4-PIK3R1 is “None of these compounds showed an inhibitory effect”. In assay [1], the sIPSC amplitude entry is given as “no significant effect” and the sIPSC frequency entry is recorded as “no significant effect”.
For the compound `COC(=O)[C@@H]1CC2=CC(=O)CC[C@]2(C)[C@@]23O[C@@H]2C[C@@]2(C)[C@@H](CC[C@@]24CCC(=O)O4)[C@H]13` [eplerenone], the “inhibitory effect” value against ERBB4-PIK3R1 is listed as “None of these compounds showed an inhibitory effect”.
As to `CS(=O)(=O)CCNCc1ccc(-c2ccc3ncnc(Nc4ccc(OCc5cccc(F)c5)c(Cl)c4)c3c2)o1` [lapatinib, Lapatinib ditosylate], the eIPSC amplitude result in assay [2] was “increases”. Besides, at ERBB4, the “ERBB4 phosphorylation at Tyr1056 and Tyr1284” value is on record as “completely reverted”.
In turn, `CC(C)(C)C(O)/C=C/c1ccc2c(c1)OCO2` (stereo not drawn) [Stiripentol] registered a Z-SCORE in the assay with NRG1-ERBB4 signaling (setting [3]) of -0.21.
In the assay with NRG1-ERBB4 signaling (setting [3]), `CN1CCc2cc(Cl)c(O)cc2[C@@H](c2ccccc2)C1.Cl` [R(+)-SCH-23390 hydrochloride] showed a Z-SCORE of 0.87.
The same measure, in the same setting: next, `Nc1nc(Cl)nc2c1ncn2[C@@H]1O[C@H](CO)[C@@H](O)[C@H]1O` [2-CHLOROADENOSINE]: 0.61.
Compound `Oc1ncnc2[nH]ncc12` [Allopurinol, reference compound] gave a Z-SCORE in the assay on NRG1-ERBB4 signaling (setting [4]) of 0.21.
Take `C[C@H](N[C@@H](CCc1ccccc1)C(=O)O)C(=O)N1CCC[C@H]1C(=O)O`: in the assay with NRG1-ERBB4 signaling (setting [3]), the Z-SCORE is -0.43.
On to `CCOC(=O)N1CCC(=C2c3ccc(Cl)cc3CCc3cccnc32)CC1` [LORATADINE], for which the Z-SCORE in the assay on NRG1-ERBB4 signaling (setting [3]) stood at 0.21.
As for `Clc1cccc(Cl)c1NC1=NCCN1`, in the assay on NRG1-ERBB4 signaling (setting [3]), the Z-SCORE is 0.34.
Turning to `CC(=O)O[C@]1(C(C)=O)CC[C@H]2[C@@H]3C[C@H](C)C4=CC(=O)CC[C@]4(C)[C@H]3CC[C@@]21C` [Medroxyprogesterone 17-acetate, reference compound], the Z-SCORE with NRG1-ERBB4 signaling (setting [4]) is -1.59.
`CN(C)CCC=C1c2ccccc2COc2ccccc21` [Doxepin]: the Z-SCORE in the assay with NRG1-ERBB4 signaling (setting [3]) is reported as 2.16.
Still for that read-out and setting: next, `C[C@]12CC[C@@H]3c4ccc(O)cc4CC[C@H]3[C@@H]1CC[C@@H]2O` [BETA-ESTRADIOL]: 0.81.
For the compound `C[C@H]1c2cccc(O)c2C(=O)C2=C(O)[C@]3(O)C(=O)C(C(N)=O)=C(O)[C@@H](N(C)C)[C@@H]3[C@@H](O)[C@@H]21` [DOXYCYCLINE, reference compound], in the assay with NRG1-ERBB4 signaling (setting [4]), the Z-SCORE was -0.93.
In the assay with NRG1-ERBB4 signaling (setting [3]), `NC(=O)C[S+]([O-])C(c1ccccc1)c1ccccc1` (stereo not drawn) [Modafinil] showed a Z-SCORE of 0.43.
As for `CO[C@@]1(NC(=O)Cc2cccs2)C(=O)N2C(C(=O)O)=C(COC(N)=O)CS[C@@H]21` [CEFOXITIN SODIUM SALT, reference compound], the Z-SCORE in the assay on NRG1-ERBB4 signaling (setting [4]) was 2.55.
In the assay on NRG1-ERBB4 signaling (setting [5]), `CC(NC(C)(C)C)C(=O)c1cccc(Cl)c1` (stereo not drawn) [BUPROPION HYDROCHLORIDE] had a Z-SCORE of -2.1.
The compound `CN(C)CCc1c[nH]c2ccc(C[C@H]3COC(=O)N3)cc12` [Zolmitriptan] registered a Z-SCORE with NRG1-ERBB4 signaling (setting [3]) of 0.57.
Same read-out and setting: next, `Cc1ccnc2c1NC(=O)c1cccnc1N2C1CC1` [Viramune]: 0.09; `CN1CCCC(n2nc(Cc3ccc(Cl)cc3)c3ccccc3c2=O)CC1` (stereo not drawn) [AZELASTINE HCl]: -0.68.
In the case of `Br.COc1ccc2c(c1)[C@@]13CCCC[C@H]1[C@@H](C2)N(C)CC3`, the Z-SCORE with NRG1-ERBB4 signaling (setting [5]) was -1.1.
For the compound `CCOC(=O)O[C@]1(C(=O)OCCl)CC[C@H]2[C@@H]3CCC4=CC(=O)C=C[C@]4(C)[C@H]3[C@@H](O)C[C@@]21C` [LOTEPREDNOL ETABONATE], the Z-SCORE in the assay on NRG1-ERBB4 signaling (setting [3]) was determined as 0.32.
In the assay with NRG1-ERBB4 signaling, `CN1C(=O)CN=C(c2ccccc2)c2cc(Cl)ccc21` [Diazepam] gave a Z-SCORE of -1.79.
Compound `Cn1nnc2c(C(N)=O)ncn2c1=O` [TEMOZOLOMIDE] came in with a Z-SCORE with NRG1-ERBB4 signaling (setting [3]) of 0.54.
The same measure, in the same setting: in the case of `C[C@]12CC[C@H]3[C@@H](CCC4=CC(=O)CC[C@@H]43)[C@@H]1CC[C@@H]2O` [nandrolone] it was -0.57.
Compound `C#CCN(C)[C@H](C)Cc1ccccc1.Cl` [DEPRENALIN, reference compound] gave a Z-SCORE in the assay on NRG1-ERBB4 signaling (setting [4]) of 0.31.
With `COc1cc(C)c(/C=C/C(C)=C/C=C/C(C)=C/C(=O)O)c(C)c1C` [Acitretin, reference compound], the Z-SCORE with NRG1-ERBB4 signaling (setting [4]) is on record as -0.6.
`C[C@H](CCC(=O)O)[C@H]1CC[C@H]2[C@@H]3C(=O)C[C@@H]4CC(=O)CC[C@]4(C)[C@H]3CC(=O)[C@]12C` [DEHYDROCHOLIC ACID] had a Z-SCORE in the assay on NRG1-ERBB4 signaling (setting [3]) of -0.51.
In turn, `CC(=O)[C@@]1(O)CC[C@H]2[C@@H]3C[C@H](C)C4=CC(=O)C=C[C@]4(C)[C@@]3(F)[C@@H](O)C[C@@]21C` [Fluorometholone, reference compound] displayed a Z-SCORE in the assay with NRG1-ERBB4 signaling (setting [4]) of -0.4.
As to `CC(C)NCC(O)COc1cccc2ccccc12` (stereo not drawn) [Inderal, reference compound], the Z-SCORE in the assay on NRG1-ERBB4 signaling (setting [4]) is recorded as -0.81.
The same measure, in the same setting: in the case of `O=C(NCC1CCCCN1)c1cc(OCC(F)(F)F)ccc1OCC(F)(F)F` (stereo not drawn) [Flecainide Acetate, reference compound] it was -0.19.
